Laboratory results published in ChEMBL document CHEMBL1158599, “(2S,4S)-1-[2-(1,1-dimethyl-3-oxo-3-pyrrolidin-1-yl-propylamino)acetyl]-4-fluoro-pyrrolidine-2-carbonitrile: a potent, selective, and orally bioavailable dipeptide-derived inhibitor of dipeptidyl peptidase IV” (Bioorg Med Chem Lett, 2010).

Key:
Dipeptidyl peptidase 9 [1] = biological target: T1, Dipeptidyl peptidase 9 (Homo sapiens, UniProt Q86TI2); assay: Inhibition of DPP9
Target sequence in this assay (Q86TI2 whole entry): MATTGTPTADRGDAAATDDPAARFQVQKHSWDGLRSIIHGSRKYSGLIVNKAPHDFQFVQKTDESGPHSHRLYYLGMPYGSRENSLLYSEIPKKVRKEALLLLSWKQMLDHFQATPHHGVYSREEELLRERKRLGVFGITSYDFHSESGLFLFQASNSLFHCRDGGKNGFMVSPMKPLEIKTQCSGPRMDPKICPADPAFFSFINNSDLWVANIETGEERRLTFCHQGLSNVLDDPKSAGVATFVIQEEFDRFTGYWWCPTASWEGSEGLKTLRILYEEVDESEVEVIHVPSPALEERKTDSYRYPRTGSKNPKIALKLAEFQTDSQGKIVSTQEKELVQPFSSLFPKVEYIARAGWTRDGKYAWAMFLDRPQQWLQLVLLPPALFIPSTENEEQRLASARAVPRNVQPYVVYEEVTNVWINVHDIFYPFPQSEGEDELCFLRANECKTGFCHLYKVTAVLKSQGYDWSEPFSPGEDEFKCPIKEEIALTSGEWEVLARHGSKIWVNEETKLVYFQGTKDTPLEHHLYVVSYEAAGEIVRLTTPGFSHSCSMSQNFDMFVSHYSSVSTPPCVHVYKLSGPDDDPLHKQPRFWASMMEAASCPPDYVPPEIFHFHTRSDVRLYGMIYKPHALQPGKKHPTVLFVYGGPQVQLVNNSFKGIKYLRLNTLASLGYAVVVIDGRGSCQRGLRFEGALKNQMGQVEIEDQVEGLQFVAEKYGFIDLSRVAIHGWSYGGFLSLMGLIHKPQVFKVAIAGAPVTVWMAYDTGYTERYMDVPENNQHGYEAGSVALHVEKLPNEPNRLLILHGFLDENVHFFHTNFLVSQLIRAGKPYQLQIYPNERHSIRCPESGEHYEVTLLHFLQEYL

Dipeptidyl peptidase 8 = Dipeptidyl peptidase 8 (Homo sapiens, UniProt Q6V1X1)
Chain of Dipeptidyl peptidase 8 (Q6V1X1 whole entry): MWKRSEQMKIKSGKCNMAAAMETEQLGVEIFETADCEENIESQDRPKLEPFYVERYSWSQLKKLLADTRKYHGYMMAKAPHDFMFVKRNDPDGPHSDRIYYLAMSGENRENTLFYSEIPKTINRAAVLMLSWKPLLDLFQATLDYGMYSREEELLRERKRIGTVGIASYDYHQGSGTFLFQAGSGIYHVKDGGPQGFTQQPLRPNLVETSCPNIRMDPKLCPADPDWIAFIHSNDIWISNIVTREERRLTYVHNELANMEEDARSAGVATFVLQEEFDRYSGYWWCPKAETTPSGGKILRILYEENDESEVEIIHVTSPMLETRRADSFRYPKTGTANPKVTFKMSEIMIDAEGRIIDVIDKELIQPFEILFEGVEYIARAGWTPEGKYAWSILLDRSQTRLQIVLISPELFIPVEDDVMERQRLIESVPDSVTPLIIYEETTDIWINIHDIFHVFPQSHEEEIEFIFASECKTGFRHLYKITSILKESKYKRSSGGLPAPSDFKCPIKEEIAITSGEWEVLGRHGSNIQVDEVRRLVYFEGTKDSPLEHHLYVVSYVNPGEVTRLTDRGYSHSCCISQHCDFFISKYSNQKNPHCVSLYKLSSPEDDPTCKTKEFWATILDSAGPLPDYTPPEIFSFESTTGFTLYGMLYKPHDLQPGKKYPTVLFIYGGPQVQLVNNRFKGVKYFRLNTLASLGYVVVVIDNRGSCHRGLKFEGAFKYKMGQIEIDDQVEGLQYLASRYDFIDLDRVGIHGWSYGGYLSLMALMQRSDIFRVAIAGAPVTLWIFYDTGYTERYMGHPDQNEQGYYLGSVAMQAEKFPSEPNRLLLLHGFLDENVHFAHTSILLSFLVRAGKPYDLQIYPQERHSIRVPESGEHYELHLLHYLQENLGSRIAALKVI

Rattus norvegicus [2] = organism: Rattus norvegicus; assay: animal or person; settings: Plasma, po, 0.5 h, read-out: INH
Dipeptidyl peptidase 4 [3] = biological target: T2, Dipeptidyl peptidase 4 (Homo sapiens, UniProt P27487)
T2 sequence (P27487 whole entry): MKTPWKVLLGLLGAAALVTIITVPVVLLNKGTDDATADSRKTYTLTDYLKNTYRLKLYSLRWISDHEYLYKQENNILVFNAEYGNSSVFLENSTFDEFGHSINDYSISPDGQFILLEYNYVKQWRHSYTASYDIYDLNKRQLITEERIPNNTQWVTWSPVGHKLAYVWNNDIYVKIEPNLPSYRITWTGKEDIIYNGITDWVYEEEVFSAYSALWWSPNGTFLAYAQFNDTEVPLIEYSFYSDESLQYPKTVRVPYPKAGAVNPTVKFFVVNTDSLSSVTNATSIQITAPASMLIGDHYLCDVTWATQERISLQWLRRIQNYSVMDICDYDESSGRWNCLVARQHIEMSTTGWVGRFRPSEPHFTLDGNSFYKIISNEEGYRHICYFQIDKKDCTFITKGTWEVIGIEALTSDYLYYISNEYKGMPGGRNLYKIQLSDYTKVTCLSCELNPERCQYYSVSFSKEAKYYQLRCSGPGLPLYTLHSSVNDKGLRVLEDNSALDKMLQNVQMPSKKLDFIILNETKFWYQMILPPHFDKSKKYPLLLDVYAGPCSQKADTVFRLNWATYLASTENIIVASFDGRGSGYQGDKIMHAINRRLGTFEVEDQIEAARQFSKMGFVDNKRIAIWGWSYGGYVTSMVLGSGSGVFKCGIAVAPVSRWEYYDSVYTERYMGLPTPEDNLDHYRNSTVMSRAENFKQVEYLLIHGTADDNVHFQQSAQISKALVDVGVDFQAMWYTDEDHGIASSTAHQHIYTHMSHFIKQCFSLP

Rattus norvegicus [4] = organism: Rattus norvegicus; assay: animal or person; settings: Plasma, po, 8 h, read-out: INH
Dipeptidyl peptidase 4 [5] = biological target: T2, Dipeptidyl peptidase 4; remark: listed apart in the source
Dipeptidyl peptidase 4 [6] = biological target: T2, Dipeptidyl peptidase 4; remark: listed apart in the source
Dipeptidyl peptidase 9 [7] = biological target: T1, Dipeptidyl peptidase 9; assay: Inhibition of DPP9 at 20 uM
Target sequence in this assay (Q86TI2 2-863 limits assumed): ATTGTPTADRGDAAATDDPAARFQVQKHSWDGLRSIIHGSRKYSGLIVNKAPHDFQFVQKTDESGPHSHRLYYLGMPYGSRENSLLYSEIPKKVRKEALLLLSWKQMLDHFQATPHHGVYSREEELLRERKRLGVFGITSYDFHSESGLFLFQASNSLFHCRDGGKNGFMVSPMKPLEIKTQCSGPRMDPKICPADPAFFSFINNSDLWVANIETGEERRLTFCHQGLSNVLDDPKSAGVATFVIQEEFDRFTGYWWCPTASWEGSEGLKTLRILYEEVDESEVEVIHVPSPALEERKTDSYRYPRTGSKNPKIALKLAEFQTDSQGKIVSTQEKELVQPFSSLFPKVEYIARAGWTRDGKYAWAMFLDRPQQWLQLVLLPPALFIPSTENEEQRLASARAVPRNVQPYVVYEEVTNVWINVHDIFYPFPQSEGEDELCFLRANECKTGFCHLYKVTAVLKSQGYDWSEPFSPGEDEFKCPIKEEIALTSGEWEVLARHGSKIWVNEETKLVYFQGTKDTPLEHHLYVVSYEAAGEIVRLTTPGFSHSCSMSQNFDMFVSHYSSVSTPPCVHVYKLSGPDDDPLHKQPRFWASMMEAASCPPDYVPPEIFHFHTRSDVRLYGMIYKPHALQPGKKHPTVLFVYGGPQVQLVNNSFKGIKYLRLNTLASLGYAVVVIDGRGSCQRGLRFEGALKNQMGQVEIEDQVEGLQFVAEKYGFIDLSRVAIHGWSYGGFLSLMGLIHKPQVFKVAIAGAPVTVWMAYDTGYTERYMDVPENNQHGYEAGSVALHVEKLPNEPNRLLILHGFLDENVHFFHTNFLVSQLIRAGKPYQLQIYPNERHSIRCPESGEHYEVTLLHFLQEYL

Dipeptidyl peptidase 2 = Dipeptidyl peptidase 2 (Homo sapiens, UniProt Q9UHL4); assay: Inhibition of DPP2
Prolyl endopeptidase FAP = biological target: T3, Prolyl endopeptidase FAP (Homo sapiens, UniProt Q12884); assay: Inhibition of FAP
T3 sequence (Q12884 whole entry): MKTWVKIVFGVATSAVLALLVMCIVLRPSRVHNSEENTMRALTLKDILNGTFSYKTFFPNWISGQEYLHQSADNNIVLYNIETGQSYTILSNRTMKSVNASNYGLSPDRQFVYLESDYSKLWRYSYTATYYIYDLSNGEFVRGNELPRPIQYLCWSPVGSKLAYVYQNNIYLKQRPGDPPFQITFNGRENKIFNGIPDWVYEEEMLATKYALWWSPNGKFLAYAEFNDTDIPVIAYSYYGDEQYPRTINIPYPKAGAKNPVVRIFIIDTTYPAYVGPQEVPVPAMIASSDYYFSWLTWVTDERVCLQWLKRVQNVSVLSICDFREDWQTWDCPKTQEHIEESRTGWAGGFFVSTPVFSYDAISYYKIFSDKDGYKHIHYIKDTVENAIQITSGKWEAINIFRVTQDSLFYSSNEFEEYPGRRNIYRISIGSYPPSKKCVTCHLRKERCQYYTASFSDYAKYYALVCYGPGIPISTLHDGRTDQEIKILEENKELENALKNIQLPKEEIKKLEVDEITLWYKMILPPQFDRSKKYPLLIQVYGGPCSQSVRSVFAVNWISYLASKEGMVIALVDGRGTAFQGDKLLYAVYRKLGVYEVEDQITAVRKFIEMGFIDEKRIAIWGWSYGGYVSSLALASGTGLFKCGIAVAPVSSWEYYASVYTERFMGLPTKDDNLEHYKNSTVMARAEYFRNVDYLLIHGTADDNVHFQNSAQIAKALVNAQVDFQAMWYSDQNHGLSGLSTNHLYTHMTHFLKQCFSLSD

| Compound | IC50 (Dipeptidyl peptidase 9 [1]) | IC50 (Dipeptidyl peptidase 8) | inhibition in vivo at 3 mg/kg (Rattus norvegicus [2]) | IC50 (Dipeptidyl peptidase 4 [3]) | inhibition in vivo at 3 mg/kg (Rattus norvegicus [4]) | IC50 (Dipeptidyl peptidase 4 [5]) | IC50 (Dipeptidyl peptidase 4 [6]) | inhibition (Dipeptidyl peptidase 9 [7]) | IC50 (Dipeptidyl peptidase 2) | IC50 (Prolyl endopeptidase FAP) |
| --- | --- | --- | --- | --- | --- | --- | --- | --- | --- | --- |
| C[C@@H]1CCCN1C(=O)CC(C)(C)NCC(=O)N1C[C@@H](F)C[C@H]1C#N | > 20000 nM | > 20000 nM | 75% | 32 nM | 48% | – | – | – | – | – |
| CC(C)(CC(=O)N1CC[C@@H](O)C1)NCC(=O)N1C[C@@H](F)C[C@H]1C#N | > 20000 nM | > 20000 nM | 63% | 30 nM | 15% | 23 nM | 21 nM | – | – | – |
| N#C[C@@H]1CCCN1C(=O)CNC12CC3CC(CC(O)(C3)C1)C2 [VILDAGLIPTIN] | – | – | 84% | – | 73% | – | – | – | – | – |
| CC(C)(CC(=O)N1CCCCCC1)NCC(=O)N1C[C@@H](F)C[C@H]1C#N | > 20000 nM | > 20000 nM | – | 160 nM | – | – | – | – | – | – |
| CC(C)(CC(=O)N1CCSC1)NCC(=O)N1C[C@@H](F)C[C@H]1C#N | > 20000 nM | > 20000 nM | 77% | 27 nM | 56% | – | – | – | – | – |
| N[C@@H](CC(=O)N1CCn2c(nnc2C(F)(F)F)C1)Cc1cc(F)c(F)cc1F [SITAGLIPTIN] | – | – | 30% | – | 20% | – | – | – | – | – |
| CC(C)(CC(=O)N1CC=CCC1)NCC(=O)N1C[C@@H](F)C[C@H]1C#N | – | > 20000 nM | 85% | 18 nM | 70% | – | – | 50% | – | – |
| CC(C)(CC(=O)N1CCN(S(C)(=O)=O)CC1)NCC(=O)N1C[C@@H](F)C[C@H]1C#N | > 20000 nM | > 20000 nM | 64% | 24 nM | 7% | – | 15 nM | – | – | – |
| COc1ccc(NC(=O)CC(C)(C)NCC(=O)N2C[C@@H](F)C[C@H]2C#N)cc1OC | – | > 20000 nM | 86% | 27 nM | 18% | – | – | 73% | – | – |
| COc1ccc(NC(=O)CC(C)(C)NCC(=O)N2CCC[C@H]2C#N)cc1OC | > 20000 nM | > 50000 nM | – | – | – | – | – | – | > 20000 nM | > 50000 nM |
| CC(C)(CC(=O)NC1CCCC1)NCC(=O)N1C[C@@H](F)C[C@H]1C#N | > 20000 nM | > 20000 nM | 81% | 29 nM | 60% | – | – | – | – | – |
| CC(C)(CC(=O)N1CCC(=O)CC1)NCC(=O)N1C[C@@H](F)C[C@H]1C#N | > 20000 nM | > 20000 nM | – | 26 nM | – | – | – | – | – | – |
| CC(C)(CC(=O)N1C2CCC1CC2)NCC(=O)N1C[C@@H](F)C[C@H]1C#N | > 20000 nM | > 20000 nM | – | 66 nM | – | – | – | – | – | – |
| CCOC(=O)N1CCN(C(=O)CC(C)(C)NCC(=O)N2C[C@@H](F)C[C@H]2C#N)CC1 | > 20000 nM | > 20000 nM | – | 63 nM | – | – | – | – | – | – |
